# Results reported in patent US9352030B2, “Mycobacterium antigenic composition” (priority 2010, dated 2016).
# What was measured:
# [1] = Conductivity determination (Malvern Zetasizer Nano); assay type: physicochemical
# Procedure: A range of standards having sodium chloride concentrations of 0, 75, 100, 150, 250 and 300 mM were prepared from a stock solution of 1500 mM sodium chloride by dilution in water for injection.
# Immunogenic compositions were prepared using M72 with two N-terminal His residues according to the procedures provided in Example 9. To investigate the contribution from the antigen itself and any residual materials in the purified bulk, placebo lyophilisation cakes were also prepared by excluding the antigen component.
# Using a Malvern Zetasizer Nano and 1.5 ml of each sample in folded capillary cells, a voltage of 30 to 150 V (determined automatically by the instrument) was applied and the conductivity determined.
# [2] = test system: chicken Red Blood cells (RBC); assay: QS21 lytic activity haemolysis assay (limit test); assay type: cell-based; settings: RBC 30 min RT, OD at 540 nm
# Procedure: QS21 lytic activity was measured by a haemolysis assay using chicken Red Blood cells (RBC). RBC were centrifuged at 550 g at 4° C. Supernatant was discarded. The pellet was carefully resuspended in PBS buffer to reach the initial volume and the same operation was repeated until supernatant was no longer red (generally 3 times). The pellet was stored at 4° C. for 3 to 4 days maximum if not used directly (and washed again the day it is used) or was diluted around 10 times in buffer if used the same day.
# A QS21 dose range curve was prepared in ASA buffer (in salt or in sorbitol buffer following the ASA sample tested) extemporaneously and the adjuvant samples (containing a 50 ug or 90 ug equivalent of QS21 meaning the equivalent of 500 ul or 900 ul ASA) were prepared. Final volume was adjusted to 900 ul in standards and samples with adequate buffer (containing or not sorbitol as a function of the buffer of the sample tested). Due to its opalescence, ASA interferes with optical density (OD). ASA “blanks” were thus prepared and their OD was subtracted from the OD of ASA tested samples. Those blanks corresponded to the same ASA volume as the volume tested in samples, but adjusted to 1 ml with buffer. No RBC were added to these blanks. Standards and samples were then incubated with RBC (100 ul of diluted RBC added to 900 ul of standards and samples) for 30 minutes at room temperature (RT). Samples were then centrifuged 5 minutes at 900 g. Optical density at 540 nm was measured after centrifugation.
# Determination of lytic activity was carried out by a limit test.
# 1. Limit of detection (LOD) was defined as the lowest concentration of QS21 leading to an OD: • Higher than the base level (OD>0.1) • Around three times higher than OD's buffer (the “0 ug” QS21) • In the ascendant part of the curve • Determined for each test.
# 2. QS21 lytic activity was held to be positive in the adjuvant samples if the OD for the adjuvant sample was greater than the ODLOD).
# [3] = assay type: physicochemical; settings: pH 7.5 or 8.5; sodium chloride 150 mM or greater
# [4] = test system: M72-specific rabbit polyclonal antibody and M72(Mtb39)-specific mouse monoclonal antibody; assay: M72 antigenicity sandwich ELISA, varied pH and NaCl (Example 10); assay type: binding; settings: pH 7.5 or 8.5; sodium chloride 150 mM or greater
# [5] = assay type: physicochemical; settings: 100 ug/ml; pH 6.1, 7.5, 8.5; 0, 150, 450 mM NaCl; 24 hours at 4° C. or 25° C.
# [6] = assay type: physicochemical; settings: 100 ug/ml; pH 6.1, 7.5, 8.5; 0, 150, 450 mM NaCl; 24 hours at 4° C. or 25° C.; remark: listed apart in the source
# [7] = Nephlometry of Rv1196 compositions with varied pH and NaCl after storage; assay type: physicochemical; settings: 100 ug/ml; pH 6.1, 7.5, 8.5; 0, 150, 450 mM NaCl; 24 hours at 4° C. or 25° C.
# Procedure: Rv1196 protein (SEQ ID No: 1) was obtained from Corixa Corporation and was diluted to a concentration of 100 ug/ml in three different buffers (10 mM phosphate buffer at pH 6.1, 20 mM Tris buffer at pH 7.5 and 20 mM Tris buffer at pH 8.5) containing final sodium chloride concentrations of 0, 150 and 450 mM.
# Samples were stored for 24 hours at 4° C. or 25° C. before analysis.
# Nephlometry was performed using a Nepheloskan® Ascent, available from Thermo Fischer Scientific. Analysis was performed in UV transparent Costar® micro-plates available from Corning Inc (USA).
# [8] = DLS of Rv1196 compositions with varied pH and NaCl after storage; assay type: physicochemical; settings: 100 ug/ml; pH 8.5
molecule,measurement,setting,value
[Cl-].[Na+] [sodium chloride],Conductivity,[1]; 75 mM sodium chloride standard in water for injection,8.2 mS/cm
same,Conductivity,[1]; 300 mM sodium chloride standard in water for injection,30.0 mS/cm
QS21,OD,[2]; 0.5 ug QS21 standard,0.052
same,OD,[2]; 0.6 ug QS21 standard,0.073
same,OD,[2]; 0.7 ug QS21 standard,0.091
same,OD,[2]; 0.8 ug QS21 standard,0.096
same,OD,[2]; 0.9 ug QS21 standard,0.12
"M72: fusion protein antigen comprising Rv1196, M72 with two N-terminal His residues, SEQ ID No: 7 (protein, M72 fusion with 2 additional his residues) MHHTAASDNFQLSQGGQGFAIPIGQAMAIAGQIRSGGGSPTVHIGPTAFLGLGVVDNNGNGARVQRVVGSAPAASLGISTGDVITAVDGAPINSATAMADALNGHHPGDVISVTWQTKSGGTRTGNVTLAEGPPAEFMVDFGALPPEINSARMYAGPGSASLVAAAQMWDSVASDLFSAASAFQSVVWGLTVGSWIGSSAGLMVAAASPYVAWMSVTAGQAELTAAQVRVAAAAYETAYGLTVPPPVIAENRAELMILIATNLLGQNTPAIAVNEAEYGEMWAQDAAAMFGYAAATATATATLLPFEEAPEMTSAGGLLEQAAAVEEASDTAAANQLMNNVPQALQQLAQPTQGTTPSSKLGGLWKTVSPHRSPISNMVSMANNHMSMTNSGVSMTNTLSSMLKGFAPAAAAQAVQTAAQNGVRAMSSLGSSLGSSGLGGGVAANLGRAASVGSLSVPQAWAAANQAVTPAARALPLTSLTSAAERGPGQMLGGLPVGQMGARAGGGLSGVLRVPPRPYVMPHSPAAGDIAPPALSQDRFADFPALPLDPSAMVAQVGPQVVNINTKLGYNNAVGAGTGIVIDPNGVVLTNNHVIAGATDINAFSVGSGQTYGVDVVGYDRTQDVAVLQLRGAGGLPSAAIGGGVAVGEPVVAMGNSGGQGGTPRAVPGRVVALGQTVQASDSLTGAEETLNGLIQFDAAIQPGDAGGPVVNGLGQVVGMNTAAS",change in antigen size,[3],clear increase in antigen size
same,change in antigenicity,[4],reduction in antigenicity
"Mtb72f: fusion protein antigen, Mtb72f with 6 his residues, SEQ ID No: 11 (protein, Mtb72f fusion with 6 additional his residues) MHHHHHHTAASDNFQLSQGGQGFAIPIGQAMAIAGQIRSGGGSPTVHIGPTAFLGLGVVDNNGNGARVQRVVGSAPAASLGISTGDVITAVDGAPINSATAMADALNGHHPGDVISVTWQTKSGGTRTGNVTLAEGPPAEFMVDFGALPPEINSARMYAGPGSASLVAAAQMWDSVASDLFSAASAFQSVVWGLTVGSWIGSSAGLMVAAASPYVAWMSVTAGQAELTAAQVRVAAAAYETAYGLTVPPPVIAENRAELMILIATNLLGQNTPAIAVNEAEYGEMWAQDAAAMFGYAAATATATATLLPFEEAPEMTSAGGLLEQAAAVEEASDTAAANQLMNNVPQALQQLAQPTQGTTPSSKLGGLWKTVSPHRSPISNMVSMANNHMSMTNSGVSMTNTLSSMLKGFAPAAAAQAVQTAAQNGVRAMSSLGSSLGSSGLGGGVAANLGRAASVGSLSVPQAWAAANQAVTPAARALPLTSLTSAAERGPGQMLGGLPVGQMGARAGGGLSGVLRVPPRPYVMPHSPAAGDIAPPALSQDRFADFPALPLDPSAMVAQVGPQVVNINTKLGYNNAVGAGTGIVIDPNGVVLTNNHVIAGATDINAFSVGSGQTYGVDVVGYDRTQDVAVLQLRGAGGLPSAAIGGGVAVGEPVVAMGNSGGQGGTPRAVPGRVVALGQTVQASDSLTGAEETLNGLIQFDAAIQPGDSGGPVVNGLGQVVGMNTAAS",nephlometry trend with salt concentration and pH,[5],sensitive to salt concentration and pH
same,DLS size trend with salt concentration and pH,[6],sensitive to salt concentration and pH
"Rv1196: Rv1196 protein (SEQ ID No: 1) from Mycobacterium tuberculosis H37Rv, obtained from Corixa Corporation (protein, Mycobacterium tuberculosis H37Rv) MVDFGALPPEINSARMYAGPGSASLVAAAQMWDSVASDLFSAASAFQSVVWGLTVGSWIGSSAGLMVAAASPYVAWMSVTAGQAELTAAQVRVAAAAYETAYGLTVPPPVIAENRAELMILIATNLLGQNTPAIAVNEAEYGEMWAQDAAAMFGYAAATATATATLLPFEEAPEMTSAGGLLEQAAAVEEASDTAAANQLMNNVPQALQQLAQPTQGTTPSSKLGGLWKTVSPHRSPISNMVSMANNHMSMTNSGVSMTNTLSSMLKGFAPAAAAQAVQTAAQNGVRAMSSLGSSLGSSGLGGGVAANLGRAASVGSLSVPQAWAAANQAVTPAARALPLTSLTSAAERGPGQMLGGLPVGQMGARAGGGLSGVLRVPPRPYVMPHSPAAG",clarity by nephlometry with increasing salt concentration,[7],sensitive to salt concentration
same,particle size by DLS,[8],concentration of sodium chloride impacts the measured particle size
